Data set [1] concerns the target T1, C3 (Homo sapiens, UniProt P01024). Conditions: background statement; cited from earlier work.
Target sequence in this assay (P01024 23-1663): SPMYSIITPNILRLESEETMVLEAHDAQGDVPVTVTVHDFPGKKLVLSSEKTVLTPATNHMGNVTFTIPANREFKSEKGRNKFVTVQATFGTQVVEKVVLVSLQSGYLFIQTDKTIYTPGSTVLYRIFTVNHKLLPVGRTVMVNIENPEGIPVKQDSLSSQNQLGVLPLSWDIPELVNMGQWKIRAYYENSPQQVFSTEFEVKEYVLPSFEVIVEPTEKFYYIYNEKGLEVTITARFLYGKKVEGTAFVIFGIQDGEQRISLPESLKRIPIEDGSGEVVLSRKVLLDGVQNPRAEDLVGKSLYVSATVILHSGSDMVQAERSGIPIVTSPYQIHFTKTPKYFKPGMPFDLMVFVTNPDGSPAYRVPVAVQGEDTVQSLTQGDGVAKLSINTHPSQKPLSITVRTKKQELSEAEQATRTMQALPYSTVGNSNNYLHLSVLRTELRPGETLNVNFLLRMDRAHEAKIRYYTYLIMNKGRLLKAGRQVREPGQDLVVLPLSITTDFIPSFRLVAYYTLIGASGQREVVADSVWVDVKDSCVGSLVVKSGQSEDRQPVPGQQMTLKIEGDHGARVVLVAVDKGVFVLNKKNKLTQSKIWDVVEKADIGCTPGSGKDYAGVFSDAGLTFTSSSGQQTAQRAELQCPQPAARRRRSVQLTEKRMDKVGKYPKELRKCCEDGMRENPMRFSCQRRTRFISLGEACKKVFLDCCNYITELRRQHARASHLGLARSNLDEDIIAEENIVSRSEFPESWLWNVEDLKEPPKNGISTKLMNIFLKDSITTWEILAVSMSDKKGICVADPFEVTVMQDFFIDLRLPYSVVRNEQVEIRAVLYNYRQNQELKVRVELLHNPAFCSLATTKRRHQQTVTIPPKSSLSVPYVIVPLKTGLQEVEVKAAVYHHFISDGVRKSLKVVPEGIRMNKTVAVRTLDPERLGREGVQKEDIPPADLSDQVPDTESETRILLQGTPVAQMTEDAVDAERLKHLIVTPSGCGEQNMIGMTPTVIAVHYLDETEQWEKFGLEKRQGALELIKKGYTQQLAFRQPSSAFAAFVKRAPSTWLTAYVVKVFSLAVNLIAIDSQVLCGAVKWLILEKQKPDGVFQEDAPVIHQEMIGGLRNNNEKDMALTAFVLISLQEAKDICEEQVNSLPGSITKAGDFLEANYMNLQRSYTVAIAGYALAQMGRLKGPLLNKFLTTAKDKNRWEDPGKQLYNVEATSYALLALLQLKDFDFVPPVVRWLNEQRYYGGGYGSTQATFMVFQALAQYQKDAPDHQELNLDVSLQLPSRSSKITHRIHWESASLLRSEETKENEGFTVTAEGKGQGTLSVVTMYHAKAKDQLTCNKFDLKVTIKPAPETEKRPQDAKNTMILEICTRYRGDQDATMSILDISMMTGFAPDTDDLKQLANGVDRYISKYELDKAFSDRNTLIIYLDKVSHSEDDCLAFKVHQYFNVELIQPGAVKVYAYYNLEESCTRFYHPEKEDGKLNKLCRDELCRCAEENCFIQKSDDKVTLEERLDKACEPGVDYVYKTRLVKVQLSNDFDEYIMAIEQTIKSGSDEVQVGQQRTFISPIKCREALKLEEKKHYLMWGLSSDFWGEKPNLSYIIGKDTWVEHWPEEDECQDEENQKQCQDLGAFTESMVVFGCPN
Data set [2] is described as follows: Solubility in DPBS (Table 1). The class given is physicochemical. Conditions: Dulbecco's phosphate buffered saline; measured as OD (280 nm) at saturation.
Data set [3] concerns the target T1, C3. The data set is described as follows: KD (Table 1). The class given is binding.
Data set [4] deals with laser-induced choroidal neovascularization (CNV). As to the kind of experiment: Laser-induced choroidal neovascularization, nonhuman primate model of wet-type AMD, fluorescein angiography lesion grading. In kind it is in vivo, macaque. As to conditions: for CNV lesion size, % of baseline: third Cp50-treated animal (K-2434). The protocol: The effects of the compstatin analogue Cp50 (described above) were compared vs. vehicle, in a nonhuman primate model of wet-type age-related macular degeneration (AMD). In this model, laser-induced choroidal neovascularization (CNV) was performed in the eyes of macaques.
Laser-induced CNV was performed in both eyes of the macaques, as described below. Two weeks (Day 14) after laser photocoagulation, laser lesions were graded (Grade 1-4) via fluorescein angiograms (FA).
Under ketamine (15 mg/kg, i.m.) and xylazine (2 mg/kg, i.m), on Day 15, the eyes were intravitreally (IVT) injected with either vehicle, or compstatin Cp50. FA measurements were performed on weeks 4, 6, 8 10 and 12 (total of five times), following CNV.
Briefly, under light ketamine (10 mg/kg, i.m.) anesthesia, the pupils were dilated with tropicamide/phenylephrine (Mydrin-P® ophthalmic solution; Santen Pharmaceutical Co., Osaka, Japan). For the laser treatment, the macaques were anesthetized with a combination of ketamine (15 mg/kg, i.m.; Daiichi Sankyo Propharma Co., Tokyo, Japan) and xylazine (2 mg/kg, i.m.; Bayer Yakuhin, Osaka, Japan). A green laser (900 mW output; Green Scan Laser Photocoagulator, GYC-500, Nidek, Co., Gamagori, Japan) was applied to eight spots (about 75 μm, 0.1 s duration) around the macula in a grid pattern. The extent of CNV lesion was assessed using fluorescence angiography (FA) at predetermined time points.
On the day of lesion grading, under light ketamine (10 mg/kg, i.m.) anesthesia, the pupils were dilated with tropicamide/phenylephrine (Mydrin-P® ophthalmic solution), and then the macaques were anesthetized with a combination of ketamine (15 mg/kg, i.m.) and xylazine (2 mg/kg, i.m).
Fluorescence Angiography (FA) was used to check the extent of CNV in the back of the eye. Ten percent sodium fluorescein (Fluorescite®; 10 mg/kg, i.v.; Novartis, Tokyo, Japan) was injected and a fundus camera took pictures of the back of the eye at about 1, 3, and 5 min after i.v. injection.
Following randomization, under ketamine (15 mg/kg, i.m.) and xylazine (2 mg/kg, i.m), on Day 15, the eyes were intravitreally (IVT) injected with 50 μl of either vehicle, or Cp50. Before IVT injection, eyes were treated twice daily for three days with levofloxacin hydrate (0.5%; Cravit®, Santen Pharmaceutical Co.).
Under anesthesia, a solution of tropicamide/phenylephrine HCl (Mydrin®-P), levofloxacin hydrate (0.5%; Santen Pharmaceutical Co.), and oxybuprocaine HCl (0.4%; Santen Pharmaceutical Co.) was instilled before dosing.

The next data set addresses T2, C3 protein (UniProt P01024 23-1663, limits assumed).
T2 construct: also called complement component C3; plasma protein C3
As to the kind of experiment: method not stated (Table 1; target C3 implied).

Converted amounts (≈) assume the structure as drawn. Where a SMILES comes first, the peptide text is derived from it. Bridges are numbered along the chain shown (N, C = ends). Where no end group is shown, it is not given here.

T2 sequence (P01024 23-1663 limits assumed): as the sequence (P01024 23-1663) above

In the case of `CC[C@H](C)[C@H](N)C(=O)N[C@H]1CSSC[C@@H](C(=O)N[C@H](C(N)=O)[C@@H](C)O)NC(=O)[C@H](CCCN=C(N)N)NC(=O)[C@H](Cc2cnc[nH]2)NC(=O)[C@H](Cc2cnc[nH]2)NC(=O)CNC(=O)[C@H](Cc2c[nH]c3ccccc23)NC(=O)[C@H](CC(=O)O)NC(=O)[C@H](CCC(N)=O)NC(=O)[C@H](C(C)C)NC(=O)[C@H](C(C)C)NC1=O` [Compstatin], the “binding affinity for C3” value at C3 [1] was “micromolar”.

For the molecule `CC[C@H](C)[C@H](NC(=O)[C@H](N)Cc1ccc(O)cc1)C(=O)N[C@H]1CSSC[C@@H](C(=O)N(C)[C@H](C(N)=O)[C@@H](C)CC)NC(=O)[C@H](CCCNC(=N)N)NC(=O)[C@H](Cc2c[nH]cn2)NC(=O)[C@H](C)NC(=O)CN(C)C(=O)[C@H](Cc2c[nH]c3ccccc23)NC(=O)[C@H](CC(=O)O)NC(=O)[C@H](CCC(N)=O)NC(=O)[C@H](Cc2cn(C)c3ccccc23)NC(=O)[C@H](C(C)C)NC1=O` [Cp40, dTyr-Ile-[Cys-Val-1MeTrp-Gln-Asp-Trp-Sar-Ala-His-Arg-Cys]-mIle, reference compound], in data set [2], the “Solubility DPBS” value turned out to be 0.8 mg/mL (≈ 0.447 mM).

Regarding `CC[C@H](C)[C@H](NC(=O)[C@@H]1CSSC[C@H](NC(=O)[C@@H](NC(=O)[C@@H](N)Cc2ccc(O)cc2)[C@@H](C)CC)C(=O)N[C@@H]([C@@H](C)CC)C(=O)N[C@@H](Cc2c[nH]c3ccccc23)C(=O)N[C@@H](CCC(N)=O)C(=O)N[C@@H](CC(=O)O)C(=O)N[C@@H](Cc2c[nH]c3ccccc23)C(=O)NCC(=O)N[C@@H](C)C(=O)N[C@@H](Cc2c[nH]cn2)C(=O)N[C@@H](CCCNC(=N)N)C(=O)N1)C(=O)N[C@@H](CCCCN)C(=O)N[C@@H](CCCCN)C(=O)N[C@@H](CCCCN)C(=O)O` [Cp50] (HELM PEPTIDE1{Y.I.C.I.W.Q.D.W.G.A.H.R.C.I.K.K.K}$PEPTIDE1,PEPTIDE1,3:R3-13:R3$$$V2.0; N-terminus and C-terminus assumed), the solubility in data set [2] is over 250 mg/mL. The same molecule returned a dissociation constant (Kd) at C3 [3] of 0.5 nM. For the same molecule, in data set [4] (Weeks 4, 6, 8 and 12, intravitreal injection on Day 15), the “mean Grade 4 lesion compared to eyes treated with vehicle” value was “reduced”. In addition, the entries for the “CNV lesion size, % of baseline” value in data set [4] (by week 6) and in data set [4] (by week 12) were 50% and 25%, respectively. The CNV lesion size entry in data set [4] (two Cp50-treated eyes, as early as week 4 post laser-induced CNV) is “decline”. For the same molecule, the “reduction of Grade 4 lesion ratios” value in data set [4] (two Cp50-treated eyes, from week 6 onwards until week 12) turned out to be 100%.

Consider `CC[C@H](C)[C@H](NC(=O)[C@@H]1CSSC[C@H](NC(=O)[C@@H](NC(=O)[C@@H](N)Cc2ccc(O)cc2)[C@@H](C)CC)C(=O)N[C@@H]([C@@H](C)CC)C(=O)N[C@@H](Cc2c[nH]c3ccccc23)C(=O)N[C@@H](CCC(N)=O)C(=O)N[C@@H](CC(=O)O)C(=O)N[C@@H](Cc2c[nH]c3ccccc23)C(=O)NCC(=O)N[C@@H](CCC(=O)O)C(=O)N[C@@H](Cc2c[nH]cn2)C(=O)N[C@@H](CCCNC(=N)N)C(=O)N1)C(=O)N[C@@H](CCCCN)C(=O)N[C@@H](CCCCN)C(=O)N[C@@H](CCCCN)C(=O)O` [Cp51] (HELM PEPTIDE1{Y.I.C.I.W.Q.D.W.G.E.H.R.C.I.K.K.K}$PEPTIDE1,PEPTIDE1,3:R3-13:R3$$$V2.0; N-terminus and C-terminus assumed), for which the solubility in data set [2] is over 250 mg/mL.

As to YICIWQDWGEHRCIKKK (disulfide 3-13) [Cp51], the Kd with C3 protein was 1 nM.

Values taken from US20260191991A1, “COMPSTATIN ANALOGS FOR VECTOR-BASED THERAPY” (AMYNDAS PHARMACEUTICALS US LLC, priority 2022, published 2026).
